From article PMC9837035 (Nature Communications, 2023)
“And” between values parts separate entries of the source, which are not always exact repeats. Equal values may be shown once. Read-outs that look alike come from different tables or passages of the source.

How the values were obtained:
[1] = tested on: ZBTB7A occupancy at the β-globin locus; assay: ChIP-qPCR with antibody against ZBTB7A in HUDEP-2 cells; type: cell-based, human; parameters: ChIP-qPCR, antibody against ZBTB7A: scale not given here; conditions: for occupancy of ZBTB7A: HUDEP-2, 4 days
Procedure: A total of 0.5–1 × 10^6 cells were cross-linked with 1% formaldehyde for 10 min at room temperature and the reaction was quenched with 250 mM glycine. Cross-linked cells were then lysed with buffer 1 (15 mM Tris-HCl (pH 7.5), 60 mM KCl, 15 mM NaCl, 5 mM MgCl2, 0.1 mM EGTA, 300 mM sucrose, […], 1 mM phenylmethanesulfonyl fluoride (PMSF), 0.5% NP40) and incubated on ice for 10 min. After centrifugation, the pellet was re-suspended in buffer 2 (15 mM Tris-HCl (pH 7.5), 60 mM KCl, 15 mM NaCl, 5 mM MgCl2, 0.1 mM EGTA, 1.2 M sucrose, […], 1 mM PMSF). After centrifugation, the pellet was then re-suspended in MNase buffer (50 mM Tris-HCl (pH 7.5), 1 mM CaCl2, 4 mM MgCl2, 320 mM sucrose, 1 mM PMSF) and digested with 100 U of micrococcal nuclease (Takara) at 37 °C for 15 min. After the reaction was quenched with 20 mM EDTA, the supernatants were incubated with antibodies (anti-H3K9me2 (1:100), Abcam, ab1220; anti-H3K9ac (1:100), Active Motif, 39917; Goat anti-IgG (H + L) (1:100), Jackson Immunoresearch; anti-BCL11A (1:100), Novus Biologicals, NB600-261; anti-ZBTB7A (1:100), Thermo Fisher Scientific, eBioscience (13E9); anti-CHD3 (1:100), Novus Biologicals, NB-100-60412; anti-CHD4 (1:100), abcam, ab240640) and Protein A/G PLUS-Agarose (Santa Cruz Biotechnology) overnight at 4 °C. Beads were washed sequentially once with the following buffers: wash buffer A (50 mM Tris-HCl (pH 7.5), 75 mM NaCl, 10 mM EDTA, 0.01% NP40), wash buffer B (50 mM Tris-HCl (pH 7.5), 100 mM NaCl, 10 mM EDTA, 0.01% NP40), wash buffer C (50 mM Tris-HCl (pH 7.5), 175 mM NaCl, 10 mM EDTA, 0.01% NP40). After treatment with proteinase K in buffer 4 (20 mM Tris-HCl (pH 8.0), 10 mM EDTA, 400 mM NaCl, 0.5% SDS) at 56 °C overnight, DNA was purified using the FastGene Gel/PCR Extraction Kit (Nippon Genetics). The samples were analyzed by qPCR. Primers are listed in Supplementary Table 10. ChIP-seq experiments were performed by GENEWIZ. Tracks were visualized using the integrative genome viewer. ChIP-seq analysis were analyzed Cutadapt (V1.9.1) for QC, FastQC (V0.10.1) for QC assessment, Bowtie (V2.1.0) for mapping, strand cross-correlation (SCC) for ChIP quality assessment, MACS2 for peak calling, and R package ChIPpeakAnno for Peak annotated.

[2] = tested on: HbF in CD34+-derived cells; assay: Flow cytometry of HbF-expressing CD34+-derived cells; type: cell-based, human
Procedure: For the analysis of HbF expression, HUDEP-2 cells or cells differentiated from human CD34 + progenitor cells were fixed in 0.05% glutaraldehyde for 10 min, then washed two times with PBS containing 2% FBS (PBS/2% FBS) and permeabilized with 0.1% Triton X-100 (prepared in PBS/2% FBS; Life Technologies) for 5 min. After washing with PBS/2% FBS two times, cells were stained with allophycocyanin (APC)-conjugated HbF antibody (1:1, Invitrogen, MHFH05). One million cells were incubated with the HbF–APC antibody for 30 min in the dark at 4 °C. Cells were washed twice with PBS/2% FBS, then suspended in 0.2 ml PBS/2% FBS and analyzed using a FACSCalibur (Becton Dickinson). To assess erythroid differentiation, hematopoietic cells differentiated from human CD34 cells were stained with FITC-conjugated CD45 antibody (1:1, Becton Dickinson, 555482) and APC-conjugated glycophorin A antibody (1:20, Becton Dickinson, 551336). Stained cells were suspended in 0.2 ml PBS/2% FBS containing 1 μg/ml propidium iodide (Sigma) and analyzed by FACSCalibur. The results of flow cytometer were further analyzed by FlowJo software (Becton Dickinson).

NSD1 = target: T1, NSD1 (Homo sapiens, UniProt Q96L73); assay: Radioisotope-based methyltransferase assay (selectivity); type: biochemical
T1 construct: purchased Reaction Biology

SET1b = target: T2, SET1b (Homo sapiens, UniProt Q9UPS6); assay: as above; type: biochemical
T2 construct: purchased Reaction Biology

SETD2 = target: T3, SETD2 (Homo sapiens, UniProt Q9BYW2); assay: as above; type: biochemical
T3 construct: purchased Reaction Biology
T3 sequence (Q9BYW2 whole entry): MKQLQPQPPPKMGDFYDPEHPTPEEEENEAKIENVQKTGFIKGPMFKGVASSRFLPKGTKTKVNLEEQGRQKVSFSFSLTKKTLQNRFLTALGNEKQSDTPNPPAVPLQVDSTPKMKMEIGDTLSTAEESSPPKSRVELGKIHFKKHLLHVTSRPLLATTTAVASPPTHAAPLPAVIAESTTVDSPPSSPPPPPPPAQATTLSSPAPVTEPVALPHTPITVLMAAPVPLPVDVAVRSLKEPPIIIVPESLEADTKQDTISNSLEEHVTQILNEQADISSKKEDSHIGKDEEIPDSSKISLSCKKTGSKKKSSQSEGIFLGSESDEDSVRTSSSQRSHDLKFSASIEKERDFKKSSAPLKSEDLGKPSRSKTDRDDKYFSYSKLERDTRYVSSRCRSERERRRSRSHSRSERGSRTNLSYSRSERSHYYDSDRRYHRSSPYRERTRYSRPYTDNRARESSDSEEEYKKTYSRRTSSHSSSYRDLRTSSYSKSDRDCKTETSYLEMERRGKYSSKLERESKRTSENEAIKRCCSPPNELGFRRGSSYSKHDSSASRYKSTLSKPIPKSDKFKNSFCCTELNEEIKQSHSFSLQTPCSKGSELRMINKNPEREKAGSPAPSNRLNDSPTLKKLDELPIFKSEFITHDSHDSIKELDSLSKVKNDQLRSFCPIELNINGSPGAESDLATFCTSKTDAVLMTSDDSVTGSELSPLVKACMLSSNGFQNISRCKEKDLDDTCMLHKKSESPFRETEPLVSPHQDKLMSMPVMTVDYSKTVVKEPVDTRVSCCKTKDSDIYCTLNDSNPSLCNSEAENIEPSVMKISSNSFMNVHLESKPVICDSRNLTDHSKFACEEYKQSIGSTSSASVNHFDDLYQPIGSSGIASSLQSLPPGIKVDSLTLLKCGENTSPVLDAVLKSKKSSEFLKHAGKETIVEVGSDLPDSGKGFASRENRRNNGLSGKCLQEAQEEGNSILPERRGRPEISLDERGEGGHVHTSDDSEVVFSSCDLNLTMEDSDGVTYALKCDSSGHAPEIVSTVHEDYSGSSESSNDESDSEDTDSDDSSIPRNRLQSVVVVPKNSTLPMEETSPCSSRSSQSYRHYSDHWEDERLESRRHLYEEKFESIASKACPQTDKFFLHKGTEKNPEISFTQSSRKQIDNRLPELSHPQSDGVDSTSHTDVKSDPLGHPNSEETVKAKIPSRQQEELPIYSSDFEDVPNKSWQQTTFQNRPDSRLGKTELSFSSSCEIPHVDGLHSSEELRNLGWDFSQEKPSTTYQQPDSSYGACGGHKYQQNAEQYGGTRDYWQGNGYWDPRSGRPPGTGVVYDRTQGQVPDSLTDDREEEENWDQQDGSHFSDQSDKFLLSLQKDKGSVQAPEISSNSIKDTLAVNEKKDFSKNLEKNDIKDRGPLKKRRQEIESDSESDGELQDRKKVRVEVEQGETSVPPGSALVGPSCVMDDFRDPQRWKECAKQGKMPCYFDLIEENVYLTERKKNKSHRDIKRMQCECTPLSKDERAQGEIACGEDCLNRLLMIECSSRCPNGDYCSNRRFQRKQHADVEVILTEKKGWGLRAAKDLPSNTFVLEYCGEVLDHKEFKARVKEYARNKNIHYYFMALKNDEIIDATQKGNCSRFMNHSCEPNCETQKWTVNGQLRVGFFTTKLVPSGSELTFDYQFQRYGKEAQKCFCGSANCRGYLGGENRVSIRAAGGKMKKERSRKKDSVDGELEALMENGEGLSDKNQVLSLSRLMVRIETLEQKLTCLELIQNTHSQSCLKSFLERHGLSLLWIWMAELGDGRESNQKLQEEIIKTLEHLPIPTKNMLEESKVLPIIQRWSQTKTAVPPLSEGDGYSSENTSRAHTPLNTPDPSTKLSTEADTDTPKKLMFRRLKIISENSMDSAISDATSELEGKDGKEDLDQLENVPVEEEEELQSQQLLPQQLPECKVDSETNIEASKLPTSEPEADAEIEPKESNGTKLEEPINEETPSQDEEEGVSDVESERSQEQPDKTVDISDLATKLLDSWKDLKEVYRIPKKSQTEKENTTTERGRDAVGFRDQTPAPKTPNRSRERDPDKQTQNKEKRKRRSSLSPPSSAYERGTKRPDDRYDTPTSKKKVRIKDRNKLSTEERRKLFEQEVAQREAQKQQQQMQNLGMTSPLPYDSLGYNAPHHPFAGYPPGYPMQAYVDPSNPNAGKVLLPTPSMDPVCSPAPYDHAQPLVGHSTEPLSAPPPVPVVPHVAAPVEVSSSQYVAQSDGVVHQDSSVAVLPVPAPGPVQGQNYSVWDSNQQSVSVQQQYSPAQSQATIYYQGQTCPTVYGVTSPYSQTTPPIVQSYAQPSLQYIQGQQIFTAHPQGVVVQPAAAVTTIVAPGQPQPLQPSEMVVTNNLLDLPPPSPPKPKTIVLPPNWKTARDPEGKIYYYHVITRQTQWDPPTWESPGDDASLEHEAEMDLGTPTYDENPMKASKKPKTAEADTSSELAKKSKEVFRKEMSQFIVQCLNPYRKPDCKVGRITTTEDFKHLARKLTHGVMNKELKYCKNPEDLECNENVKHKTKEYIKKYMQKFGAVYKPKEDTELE

PRMT6 = PRMT6 (Homo sapiens, UniProt Q96LA8); assay: as above
Chain of PRMT6 (Q96LA8 whole entry): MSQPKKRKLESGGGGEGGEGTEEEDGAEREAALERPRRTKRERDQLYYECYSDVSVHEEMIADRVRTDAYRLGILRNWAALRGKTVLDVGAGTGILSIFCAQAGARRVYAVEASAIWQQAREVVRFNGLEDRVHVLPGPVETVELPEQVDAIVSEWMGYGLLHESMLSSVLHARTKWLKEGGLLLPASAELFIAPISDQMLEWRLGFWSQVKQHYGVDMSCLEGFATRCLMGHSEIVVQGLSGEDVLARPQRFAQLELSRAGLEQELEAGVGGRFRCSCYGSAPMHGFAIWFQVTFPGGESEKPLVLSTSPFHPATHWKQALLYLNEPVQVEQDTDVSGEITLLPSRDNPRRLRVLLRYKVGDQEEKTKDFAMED

SUV420H1TV2 = target: T4, SUV420H1TV2 (Homo sapiens, UniProt Q4FZB7); assay: as above; type: biochemical
T4 construct: purchased Reaction Biology
T4 sequence (Q4FZB7 1-393 isoform Q4FZB7-2): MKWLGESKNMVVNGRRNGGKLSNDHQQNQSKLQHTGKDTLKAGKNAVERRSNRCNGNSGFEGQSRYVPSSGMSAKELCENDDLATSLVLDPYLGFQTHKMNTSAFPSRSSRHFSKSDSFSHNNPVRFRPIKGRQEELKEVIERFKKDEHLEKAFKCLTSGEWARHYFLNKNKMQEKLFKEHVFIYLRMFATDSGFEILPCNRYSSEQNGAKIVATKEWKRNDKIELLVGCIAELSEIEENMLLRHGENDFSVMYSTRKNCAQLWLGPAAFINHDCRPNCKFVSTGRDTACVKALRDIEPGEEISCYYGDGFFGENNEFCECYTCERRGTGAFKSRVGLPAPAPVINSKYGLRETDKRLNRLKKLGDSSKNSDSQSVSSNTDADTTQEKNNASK

## NC(=O)NO [Hydroxyurea, hydroxyurea]
[1]; BGLT3 locus, HUDEP-2 cells treated with hydroxyurea, replicates 1a-3b
  ChIP-qPCR, antibody against ZBTB7A: 0.2555 and 0.2878 and 0.489 and 0.1677 and 0.3852 and 0.1554
[1]; HS1, HUDEP-2 cells treated with hydroxyurea, replicates 1a-3b
  ChIP-qPCR, antibody against ZBTB7A: 0.1321 and 0.1347 and 0.8135 and 0.9678 and 0.3385 and 0.3161
[1]; HS2, HUDEP-2 cells treated with hydroxyurea, replicates 1a-3b
  ChIP-qPCR, antibody against ZBTB7A: 0.5755 and 1.852 and 0.7582 and 2.507 and 0.9285 and 0.344
[1]; HS3, HUDEP-2 cells treated with hydroxyurea, replicates 1a-3b
  ChIP-qPCR, antibody against ZBTB7A: 3.3 and 2.712 and 3.199 and 3.147 and 3.201 and 2.452
[1]; HS4, HUDEP-2 cells treated with hydroxyurea, replicates 1a-3b
  ChIP-qPCR, antibody against ZBTB7A: 0.5937 and 0.6906 and 0.5556 and 0.0004431 and 0.6456 and 0.709
[1]
  occupancy of ZBTB7A: unchanged
[1]; β-globin promoter, HUDEP-2 cells treated with hydroxyurea, replicates 1a-3b
  ChIP-qPCR, antibody against ZBTB7A: 0.3506 and 0.4318 and 0.349 and 0.2415 and 0.313 and 0.6542
[1]; γ-globin promoter, HUDEP-2 cells treated with hydroxyurea, replicates 1a-3b
  ChIP-qPCR, antibody against ZBTB7A: 0.3068 and 0.4102 and 0.3595 and 0.2786 and 0.238 and 0.2672
[1]; δ-globin promoter, HUDEP-2 cells treated with hydroxyurea, replicates 1a-3b
  ChIP-qPCR, antibody against ZBTB7A: 0.2368 and 0.1088 and 0.2161 and 0.2308 and 0.337 and 0.2535
[2]
  HbF induction compared with RK-701: less effective in inducing HbF than RK-701
[2]; day 11, 10 μM, listed as HU
  Percentage of HbF-expressing cells: 32.8% and 45.2% and 37.4%
[2]; day 11, 50 μM, listed as HU
  Percentage of HbF-expressing cells: 63% and 65.2% and 61.5%

## Cc1c(C(=O)NC(CCC2CC2)C(=O)Nc2ccc(C#N)cc2)[nH]c2c1C(=O)CC(C)(C)C2 (centres unmarked) [RK-701]
NSD1; NSD1, 1 μM SAM
  IC50: > 100 µM
NSD1; NSD1, RK-701 in duplicate
  IC50: > 100 µM
SET1b; 1 μM SAM
  IC50: 48.6 µM
SET1b; RK-701 in duplicate
  IC50: 47.6 µM and 49.6 µM
[1]; BGLT3 locus, HUDEP-2 cells treated with RK-701, replicates
  ChIP-qPCR, antibody against ZBTB7A: 0.4785 and 0.7839 and 0.6066 and 0.47 and 0.614 and 0.4023
[1]; HS1, HUDEP-2 cells treated with RK-701, replicates
  ChIP-qPCR, antibody against ZBTB7A: 0.3678 and 0.05637 and 0.7128 and 0.4479 and 0.1475 and 0.1331
[1]; HS2, HUDEP-2 cells treated with RK-701, replicates
  ChIP-qPCR, antibody against ZBTB7A: 1.5097 and 1.657 and 5.746 and 3.531 and 2.263 and 8.084 and 5.171
[1]; HS3, HUDEP-2 cells treated with RK-701, replicates
  ChIP-qPCR, antibody against ZBTB7A: 0.5878 and 1.255 and 2.352 and 2.616 and 1.402 and 1.245 and 2.743
[1]; HS4, HUDEP-2 cells treated with RK-701, replicates
  ChIP-qPCR, antibody against ZBTB7A: 0.4061 and 0.5382 and 0.8901 and 0.4009 and 0.2486
[1]
  occupancy of ZBTB7A: significantly reduced
[1]; β-globin promoter, HUDEP-2 cells treated with RK-701, replicates
  ChIP-qPCR, antibody against ZBTB7A: 0.04529 and 0.1645 and 0.1359 and 0.07664 and 0.1559 and 0.07017 and 0.04448 and 0.1674 and 0.1136
[1]; γ-globin promoter, HUDEP-2 cells treated with RK-701, replicates
  ChIP-qPCR, antibody against ZBTB7A: 0.04733 and 0.01872 and 0.01192 and 0.1001 and 0.03782 and 0.06607 and 0.08612
[1]; δ-globin promoter, HUDEP-2 cells treated with RK-701, replicates
  ChIP-qPCR, antibody against ZBTB7A: 0.02578 and 0.1044 and 0.02059 and 0.06153 and 0.0851 and 0.07628
SETD2; SETD2, 1 μM SAM
  IC50: > 100 µM
SETD2; SETD2, RK-701 in duplicate
  IC50: > 100 µM
[2]; day 11, 0.01 μM
  Percentage of HbF-expressing cells: 22.7% and 27% and 19%
[2]; day 11, 0.03 μM
  Percentage of HbF-expressing cells: 41.2% and 51.3% and 42.4%
[2]; day 11, 0.1 μM
  Percentage of HbF-expressing cells: 71.3% and 76.8% and 67.7%
[2]; day 11, 0.3 μM
  Percentage of HbF-expressing cells: 83.5% and 83.7% and 81.1%
[2]; day 11, 1 μM
  Percentage of HbF-expressing cells: 84.2% and 87.4% and 83.5%
[2]; day 11, 3 μM
  Percentage of HbF-expressing cells: 84.8% (2×) and 85.2%
PRMT6
  IC50: > 100 µM
SUV420H1TV2; SUV420H1TV2, 1 μM SAM
  IC50: > 100 µM
SUV420H1TV2; SUV420H1TV2, RK-701 in duplicate
  IC50: > 100 µM

## Nc1ncnc2c1ncn2[C@@H]1O[C@H](CSCC[C@H](N)C(=O)O)[C@@H](O)[C@H]1O [SAH, S-(5'-Adenosyl)-L-homocysteine, reference compound]
NSD1; NSD1, 1 μM SAM
  IC50: 56.6 µM
NSD1; NSD1, RK-701 in duplicate
  IC50: 56.6 µM
SET1b; 1 μM SAM
  IC50: 5.3 µM
SET1b; RK-701 in duplicate
  IC50: 5.3 µM
SETD2; SETD2, 1 μM SAM
  IC50: 5.3 µM
SETD2; SETD2, RK-701 in duplicate
  IC50: 5.31 µM
PRMT6; IC50, PRMT6, 1 μM SAM
  IC50: 0.41 µM
SUV420H1TV2
  IC50: 126 µM
